In ChEMBL document CHEMBL5252613, “Discovery and anti-tumor activity of 4-(benzylamino)-6-(3,5-dimethylisoxazol-4-yl)quinolin-2(1H)-one (CG13250), a potent, selective and orally bioavailable BET bromodomain inhibitor” (Bioorg Med Chem Lett, 2023) one finds GI50, IC50 and Kd data, which are given here for 10 compounds.

In one assay the test system is MV4-11. The assay can be described thus: Growth inhibition of human MV4-11 cells measured after 72 hrs. It is filed as functional.
Assay [1] has as its target T1, Bromodomain-containing protein 4 (Homo sapiens, UniProt O60885). The assay can be described thus: Inhibition of BRD4 bromodomain 1/2 (unknown origin) by Alphascreen assay. A general note: Bead proximity is the source of the signal in Alpha formats.
Assay [2] has as its target T1, Bromodomain-containing protein 4. The assay can be described thus: Inhibition of BRD4 bromodomain 1/2 (unknown origin) assessed as dissociation constant by DiscoveRx BROMOscan assay.

Usually GI50 stands for the concentration giving 50% growth inhibition. Read a low GI50 as more potent growth inhibition. As a reminder, the IC50 is the concentration needed to halve the response being measured. Read a low IC50 as greater potency. What is called Kd is the equilibrium constant for the complex coming apart.

Turning to `Cc1noc(C)c1-c1ccc2[nH]c(=O)cc(O)c2c1`, the GI50 with MV4-11 is more than 100000 nM. Besides, in assay [1], the IC50 was 16000 nM. Also, in assay [2], the Kd stood at 3400 nM.
On to `Cc1noc(C)c1-c1ccc2[nH]c(=O)cc(NCCc3ccccc3)c2c1`, for which the GI50 in the assay with MV4-11 is 5720 nM. The Kd in assay [2] came out at 490 nM.
The corresponding values for `Cc1noc(C)c1-c1ccc2[nH]c(=O)cc(NCc3cc(Cl)cc(Cl)c3)c2c1` are 1400 nM and 170 nM.
In the assay on MV4-11, `Cc1noc(C)c1-c1ccc2[nH]c(=O)cc(NCc3ccccc3Br)c2c1` had a GI50 of 3500 nM. The Kd in assay [2] worked out at 210 nM.
Regarding `Cc1noc(C)c1-c1ccc2c(-c3ccccc3)cc(=O)[nH]c2c1`, in the assay on MV4-11, halving of growth (GI50) required 14000 nM. Further, in assay [1], inhibition was half-maximal at 3100 nM (IC50). Moreover, in assay [2], the Kd turned out to be 7400 nM.
The compound `Cc1noc(C)c1-c1ccc2[nH]c(=O)cc(NCc3cccc(Cl)c3)c2c1` came in with a concentration for 50% growth inhibition (GI50) with MV4-11 of 1220 nM. Moreover, in assay [2], the Kd amounted to 28 nM.
Consider `Cc1noc(C)c1-c1ccc2[nH]c(=O)cc(N3CCOCC3)c2c1`, for which the Kd in assay [2] came out at 570 nM.
As for `Cc1noc(C)c1-c1ccc2[nH]c(=O)cc(N3CCCC3)c2c1`, in the assay on MV4-11, the GI50 was 1990 nM. In addition, the dissociation constant (Kd) in assay [2] is 370 nM.
`Cc1noc(C)c1-c1ccc2[nH]c(=O)cc(NCc3ccc(Cl)cc3)c2c1` returned a concentration for 50% growth inhibition (GI50) with MV4-11 of 1700 nM. Besides, in assay [2], the Kd came out at 210 nM.
In the case of `Cc1noc(C)c1-c1ccc2[nH]c(=O)cc(N3CCCCC3)c2c1`, in the assay with MV4-11, the GI50 was 833 nM. In assay [2], the Kd was found to be 54 nM.
